Laboratory results reported in EP2966448B1, “METHOD FOR THE PREDICTION OR PROGNOSIS OF THE RESPONSE OF A HUMAN SUBJECT SUFFERING FROM CANCER TO TREATMENT WITH AN ANTAGONIST OF THE NK1 RECEPTOR” (priority 2013, dated 2014).
Read-outs that look alike come from different tables or passages of the source.

Columns and labels:
[1] = test system: human primary tumor cells; assay: Inhibition of primary tumor cell cultures vs absence or presence of ERK  protein (Example 3; tumor type per table line); type: cell-based; settings: for Percentage of inhibition of cell cultures: 100 micromolar
Procedure: (§1) Cell cultures. […] Briefly, small pieces of the tumors were digested into a hyaluronidase solution (Sigma-Aldrich, USA) at a concentration of 1 mg/ml during 15 minutes at 37°C, and then they were treated with 6 mg/ml of collagenase type IV (Invitrogen) during 2 hours at 37°C. Consecutively, cells were washed, and resuspended in the DMEM culture medium with high concentration of glucose (Dulbecco's Modified Eagle's Medium, Invitrogen) supplemented with 1% of antibiotics-antimycotics (Invitrogen) and with 1% of sodium pyruvate (Invitrogen), and the cells were seeded in culture slides at a concentration of 10.000 cells per square centimeter. When cells reached confluence, the adherent cells were separated using sterile trypsin at 0,5% (Invitrogen) and they were used among passages 3 and 9. For the assays shown next, tumor cells were seeded on slides at a concentration of 25.000 cells per well. A total of 6 wells containing the tumor cells were used as survival control. […] All the cultures were kept during 48 hours and later on recollected for their analysis.
Consecutively, the cells were placed in cultures in the presence of several antagonists of the NK1 receptor.
In each case it was determined the presence or absence of the downstream effector in the MAP Kinases ERK pathway.
To determine the presence of the ERK protein, it was performed a Western Blot technique, using as primary antibody: Phospho-p44/42 MAPK (Erk1/2) (Thr202/Tyr204) (D13.14.4E) XP® Rabbit mAb (4370, Cell Signalling). To determine the presence of the MEK protein, it was performed the Western Blot technique, using as primary antibody Phospho-MEK1/2 (Ser217/221) (9121, Cell Signalling).
The antibody against NK1 receptor (Table 21) was used at 1/50 concentration. The percentages of inhibition are expressed in percentages of variation in relation to control ± standard deviation.

[2] = test system: human primary tumor cells; assay: Inhibition of primary tumor cell cultures vs amplification of the gene encoding the NK1 receptor (Example 6; tumor type per table line); type: cell-based; settings: for Percentage of inhibition of cell cultures: 100 micromolar
Procedure: as §1
The presence or absence of the amplification of the gene encoding for the NK1 receptor was determined, and then the cells were cultured in the presence of several antagonists of the NK1 receptor.
For each case, the presence or absence of amplification of the gene encoding for the NK1 receptor was determined.
In order to determine the presence of the amplification (increase in the number of copies) of the gene encoding the NK1 receptor (TAC1R), it was used the comparative genomic hybridization technique (CGH Array). Firstly genomic DNA was extracted from each case. Later, it was performed the marking and hybridization of the DNA of each sample together with DNA of a commercial reference without genomic alterations (from masculine or feminine sex, depending on the gender of the patient from whom the samples were obtained). The Array is Sureprint G3 Human CGH Microarray from the company Agilent was used, with an average separation between probes of 5.3Kb and 4.6Kb for the genes RefSeq. The reading of the microarray was done with the DNA Microarray Scanner G2565CA from Agilent, at a resolution of 3 µm. The analysis of the results was performed with the software Cytogenomics v 2.0.6.0 from Agilent with ADM-2: 6.0; Centralization: ON (Threshold: 6.0, Bin size: 10); Fuzzy zero: ON; Aberration filters: ON (minProbes=5 and minAvgAbsLopRatio= 0,5); Feature Level Filters : ON. The genomic coordinates are coincident with the NCBI36genome (hg18). Cases were distributed in two groups: Group I for those cases without the amplification of the gene encoding the NK1 receptor (locus 2p13.1-p12), and Group II for those cases with amplification of the gene encoding the NK1receptor (locus 2p13.1-p12).
The antibody against NK1 receptor (Table 36) was used at 1/50 concentration. The percentages of inhibition are expressed in percentages of variation in relation to control ± standard deviation.

Prostate carcinoma = assay: cells; settings: Homo sapiens, 1 micromolar
Procedure: Cell cultures. To obtain tumor cells from human primary tumors we used the method described in De Bari et al. (De Bari et al. 2001). Briefly, small pieces of the tumors were digested into a hyaluronidase solution (Sigma-Aldrich, USA) at a concentration of 1 mg/ml during 15 minutes at 37°C, and then they were treated with 6 mg/ml of collagenase type IV (Invitrogen) during 2 hours at 37°C. Consecutively, cells were washed, and resuspended in the DMEM culture medium with high concentration of glucose (Dulbecco's Modified Eagle's Medium, Invitrogen) supplemented with 1% of antibiotics-antimycotics (Invitrogen) and with 1% of sodium pyruvate (Invitrogen), and the cells were seeded in culture slides at a concentration of 10.000 cells per square centimeter. When cells reached confluence, the adherent cells were separated using sterile trypsin at 0,5% (Invitrogen) and they were used among passages 3 and 9. For the assays shown next, tumor cells were seeded on slides at a concentration of 25.000 cells per well. A total of 6 wells containing the tumor cells were used as survival control. […] All the cultures were kept during 48 hours and later on recollected for their analysis.
Immunohistochemistry techniques. The presence of NK1 receptors was also analyzed using immunohistochemistry techniques. Briefly, a sample of each of the cultures of the cell lines used in the present invention, was centrifuged (5 minutes at 1.500 rpm) and the pellet obtained was dehydrated using increasing concentrations of ethanol and, finally, xylol. Then, said dehydrated samples were embedded in paraffin, creating a block of cells. Such paraffin blocks were cut with a microtome at 5 microns thickness, and were placed on microscope slides adequate to perform immunohistochemistry techniques. Consecutively, they were de-paraffinized by immersing them in xylol, to be finally hydrated using a solution containing decreasing concentrations of ethanol, and finally submerged them into water. […] After this, the samples were left to cool down at room temperature for 10 minutes. The endogenous peroxidase activity was blocked with 3% peroxide of hydrogen for 30 minutes at room temperature. After washing the samples with 0.05 M of Tris buffer, they were incubated with 10% non-immune pork serum at for 30 minutes at room temperature. To analyze the expression of NK1 receptors, the cellular samples were incubated in the presence of anti-NK1 antibodies (S8305, Sigma-Aldrich) diluted 1:1000, overnight at 4°C. Afterwards, the samples were washed in Tris buffer 0.05 M at room temperature. The next step was the addition of Envision System-HRP (Dako) reagents for 30 minutes at room temperature. Then, the samples were washed again in Tris buffer 0.05 M and the immunoreactivity was visualized through light microscopy with a chromogenic solution containing 3,3'-Diaminobenzidine (DAB+; Dako, USA). To differentiate the cell nuclei, they were slightly stained with hematoxylin. As negative control, it was used samples not incubated with the primary antibody anti-NK1, which was replaced by non-immune serum. All the samples were evaluated.
To value the immunostaining in each of the cases six cuts were performed to be analyzed by the immunohistochemistry technique. In each of the six cuts, it was counted cells in 20 fields (magnification 400x) using an Olympus microscope (model CX31). In each field it was counted the total number of cells and the number of cells presenting immunostaining, calculating afterwards the percentage of cells which presented immunostaining.

Question: `Cc1cc(F)ccc1[C@H]1CNCCN1C(=O)N(C)[C@H](C)c1cc(C(F)(F)F)cc(C(F)(F)F)c1` [Vestipitant] was tested. Which “Percentage of inhibition of cell cultures” value ([1]; Glioma (astrocytoma), cases with presence of ERK) did it give?
Answer: 95±3 percentage

Question: What about the “Percentage of inhibition of cell cultures” value ([1]; Glioma (astrocytoma), cases without presence of ERK) of the same molecule?
Answer: 27±4 percentage

Question: What about the “Percentage of inhibition of cell cultures” value ([1]; Lung carcinoma (non small cell lung carcinoma), cases with presence of ERK) of the same molecule?
Answer: 95±5 percentage

Question: What about the “Percentage of inhibition of cell cultures” value ([1]; Lung carcinoma (non small cell lung carcinoma), cases without presence of ERK) of the same molecule?
Answer: 26±2 percentage

Question: And the “Percentage of inhibition of cell cultures” value ([1]; Lung carcinoma (small cell lung carcinoma), cases with presence of ERK)?
Answer: 96±6 percentage

Question: What about the “Percentage of inhibition of cell cultures” value ([1]; Lung carcinoma (small cell lung carcinoma), cases without presence of ERK) of the same molecule?
Answer: 27±4 percentage

Question: And the “Percentage of inhibition of cell cultures” value ([1]; Melanoma (Nodular Melanoma), cases with presence of ERK)?
Answer: 94±5 percentage

Question: What about the “Percentage of inhibition of cell cultures” value ([1]; Melanoma (Nodular Melanoma), cases without presence of ERK) of the same molecule?
Answer: 25±3 percentage

Question: What about the “Percentage of inhibition of cell cultures” value ([1]; Non Hodgkin Lymphoma B (diffuse B cell lymphoma), cases with presence of ERK) of the same molecule?
Answer: 96±3 percentage

Question: What about the “Percentage of inhibition of cell cultures” value ([1]; Non Hodgkin Lymphoma B (diffuse B cell lymphoma), cases without presence of ERK) of the same molecule?
Answer: 24±4 percentage

Question: And the “Percentage of inhibition of cell cultures” value ([1]; Non Hodgkin Lymphoma T (diffuse T cell lymphoma), cases with presence of ERK)?
Answer: 92±4 percentage

Question: What about the “Percentage of inhibition of cell cultures” value ([1]; Non Hodgkin Lymphoma T (diffuse T cell lymphoma), cases without presence of ERK) of the same molecule?
Answer: 25±2 percentage

Question: What about the “Percentage of inhibition of cell cultures” value ([1]; Ovarian carcinoma (Adenocarcinoma), cases with presence of ERK) of the same molecule?
Answer: 95±5 percentage

Question: And the “Percentage of inhibition of cell cultures” value ([1]; Ovarian carcinoma (Adenocarcinoma), cases without presence of ERK)?
Answer: 24±2 percentage

Question: What about the “Percentage of inhibition of cell cultures” value ([1]; Pancreatic carcinoma (Adenocarcinoma), cases with presence of ERK) of the same molecule?
Answer: 93±4 percentage

Question: And the “Percentage of inhibition of cell cultures” value ([1]; Pancreatic carcinoma (Adenocarcinoma), cases without presence of ERK)?
Answer: 24±34 percentage

Question: And the “Percentage of inhibition of cell cultures” value ([1]; Prostate carcinoma, cases with presence of ERK)?
Answer: 94±4 percentage

Question: What about the “Percentage of inhibition of cell cultures” value ([1]; Prostate carcinoma, cases without presence of ERK) of the same molecule?
Answer: 22±3 percentage

Question: What about the “Percentage of inhibition of cell cultures” value ([1]; Renal cell carcinoma (clear cell renal cell carcinoma), cases with presence of ERK) of the same molecule?
Answer: 92±2 percentage

Question: What about the “Percentage of inhibition of cell cultures” value ([1]; Renal cell carcinoma (clear cell renal cell carcinoma), cases without presence of ERK) of the same molecule?
Answer: 25±2 percentage

Question: And the “Percentage of inhibition of cell cultures” value ([1]; Thyroid carcinoma (follicular carcinoma), cases with presence of ERK)?
Answer: 94±4 percentage

Question: And the “Percentage of inhibition of cell cultures” value ([1]; Thyroid carcinoma (follicular carcinoma), cases without presence of ERK)?
Answer: 25±3 percentage

Question: What about the “Percentage of inhibition of cell cultures” value ([1]; Thyroid carcinoma (papillary carcinoma), cases with presence of ERK) of the same molecule?
Answer: 96±3 percentage

Question: And the “Percentage of inhibition of cell cultures” value ([1]; Thyroid carcinoma (papillary carcinoma), cases without presence of ERK)?
Answer: 26±4 percentage

Question: And the “Percentage of inhibition of cell cultures” value ([1]; Undifferentiated Pleomorphic Sarcoma (malignant fibrous histiocytoma grade 3), cases with presence of ERK)?
Answer: 93±4 percentage

Question: What about the “Percentage of inhibition of cell cultures” value ([1]; Undifferentiated Pleomorphic Sarcoma (malignant fibrous histiocytoma grade 3), cases without presence of ERK) of the same molecule?
Answer: 26±2 percentage

Question: And the “Percentage of inhibition of cell cultures” value ([1]; Urinary bladder carcinoma (transitional cell carcinoma), cases with presence of ERK)?
Answer: 97±5 percentage

Question: What about the “Percentage of inhibition of cell cultures” value ([1]; Urinary bladder carcinoma (transitional cell carcinoma), cases without presence of ERK) of the same molecule?
Answer: 24±5 percentage

Question: What about the “inhibition of cell proliferation” value ([1]; cancer cell cultures that show more presence of ERK, compared, non-peptidic antagonists 100 micromolar, antibody 1/50) of the same molecule?
Answer: higher inhibition

Question: What about the “Percentage of inhibition of cell cultures” value ([2]; Breast carcinoma (ductal adenocarcinoma), Cases with amplification of the gene that encodes for the NK1 receptor) of the same molecule?
Answer: 94±6 percentage

Question: What about the “Percentage of inhibition of cell cultures” value ([2]; Breast carcinoma (ductal adenocarcinoma), Cases without amplification of the gene that encodes for the NK1 receptor) of the same molecule?
Answer: 24±3 percentage

Question: And the “Percentage of inhibition of cell cultures” value ([2]; Burkitt Lymphoma, Cases with amplification of the gene that encodes for the NK1 receptor)?
Answer: 97±5 percentage

Question: What about the “Percentage of inhibition of cell cultures” value ([2]; Burkitt Lymphoma, Cases without amplification of the gene that encodes for the NK1 receptor) of the same molecule?
Answer: 23±5 percentage

Question: And the “Percentage of inhibition of cell cultures” value ([2]; Carcinoma of the uterine cervix (Squamous cell carcinoma), Cases with amplification of the gene that encodes for the NK1 receptor)?
Answer: 94±6 percentage

Question: What about the “Percentage of inhibition of cell cultures” value ([2]; Carcinoma of the uterine cervix (Squamous cell carcinoma), Cases without amplification of the gene that encodes for the NK1 receptor) of the same molecule?
Answer: 26±6 percentage

Question: What about the “Percentage of inhibition of cell cultures” value ([2]; Colon carcinoma (Adenocarcinoma), Cases with amplification of the gene that encodes for the NK1 receptor) of the same molecule?
Answer: 93±3 percentage

Question: And the “Percentage of inhibition of cell cultures” value ([2]; Colon carcinoma (Adenocarcinoma), Cases without amplification of the gene that encodes for the NK1 receptor)?
Answer: 24±4 percentage

Question: What about the “Percentage of inhibition of cell cultures” value ([2]; Endometrium carcinoma, Cases with amplification of the gene that encodes for the NK1 receptor) of the same molecule?
Answer: 95±5 percentage

Question: What about the “Percentage of inhibition of cell cultures” value ([2]; Endometrium carcinoma, Cases without amplification of the gene that encodes for the NK1 receptor) of the same molecule?
Answer: 23±5 percentage

Question: What about the “Percentage of inhibition of cell cultures” value ([2]; Gastric carcinoma (Adenocarcinoma), Cases with amplification of the gene that encodes for the NK1 receptor) of the same molecule?
Answer: 94±4 percentage

Question: And the “Percentage of inhibition of cell cultures” value ([2]; Gastric carcinoma (Adenocarcinoma), Cases without amplification of the gene that encodes for the NK1 receptor)?
Answer: 25±5 percentage

Question: What about the “Percentage of inhibition of cell cultures” value ([2]; Glioma (astrocytoma), Cases with amplification of the gene that encodes for the NK1 receptor) of the same molecule?
Answer: 94±7 percentage

Question: What about the “Percentage of inhibition of cell cultures” value ([2]; Glioma (astrocytoma), Cases without amplification of the gene that encodes for the NK1 receptor) of the same molecule?
Answer: 26±5 percentage

Question: And the “Percentage of inhibition of cell cultures” value ([2]; Lung carcinoma (non small cell lung carcinoma), Cases with amplification of the gene that encodes for the NK1 receptor)?
Answer: 93±5 percentage

Question: And the “Percentage of inhibition of cell cultures” value ([2]; Lung carcinoma (non small cell lung carcinoma), Cases without amplification of the gene that encodes for the NK1 receptor)?
Answer: 24±4 percentage

Question: And the “Percentage of inhibition of cell cultures” value ([2]; Lung carcinoma (small cell lung carcinoma), Cases with amplification of the gene that encodes for the NK1 receptor)?
Answer: 94±4 percentage

Question: And the “Percentage of inhibition of cell cultures” value ([2]; Lung carcinoma (small cell lung carcinoma), Cases without amplification of the gene that encodes for the NK1 receptor)?
Answer: 25±3 percentage

Question: What about the “Percentage of inhibition of cell cultures” value ([2]; Melanoma (Nodular Melanoma), Cases with amplification of the gene that encodes for the NK1 receptor) of the same molecule?
Answer: 96±5 percentage

Question: What about the “Percentage of inhibition of cell cultures” value ([2]; Melanoma (Nodular Melanoma), Cases without amplification of the gene that encodes for the NK1 receptor) of the same molecule?
Answer: 24±6 percentage

Question: And the “Percentage of inhibition of cell cultures” value ([2]; Non Hodgkin Lymphoma B (diffuse B cell lymphoma), Cases with amplification of the gene that encodes for the NK1 receptor)?
Answer: 94±6 percentage

Question: And the “Percentage of inhibition of cell cultures” value ([2]; Non Hodgkin Lymphoma B (diffuse B cell lymphoma), Cases without amplification of the gene that encodes for the NK1 receptor)?
Answer: 27±5 percentage

Question: What about the “Percentage of inhibition of cell cultures” value ([2]; Non Hodgkin Lymphoma T (diffuse T cell lymphoma), Cases with amplification of the gene that encodes for the NK1 receptor) of the same molecule?
Answer: 95±4 percentage

Question: And the “Percentage of inhibition of cell cultures” value ([2]; Non Hodgkin Lymphoma T (diffuse T cell lymphoma), Cases without amplification of the gene that encodes for the NK1 receptor)?
Answer: 29±3 percentage

Question: What about the “Percentage of inhibition of cell cultures” value ([2]; Ovarian carcinoma(Adenocarcinoma), Cases with amplification of the gene that encodes for the NK1 receptor) of the same molecule?
Answer: 96±5 percentage

Question: And the “Percentage of inhibition of cell cultures” value ([2]; Ovarian carcinoma(Adenocarcinoma), Cases without amplification of the gene that encodes for the NK1 receptor)?
Answer: 25±4 percentage

Question: What about the “Percentage of inhibition of cell cultures” value ([2]; Pancreatic carcinoma (Adenocarcinoma), Cases with amplification of the gene that encodes for the NK1 receptor) of the same molecule?
Answer: 93±4 percentage

Question: And the “Percentage of inhibition of cell cultures” value ([2]; Pancreatic carcinoma (Adenocarcinoma), Cases without amplification of the gene that encodes for the NK1 receptor)?
Answer: 25±3 percentage

Question: And the “Percentage of inhibition of cell cultures” value ([2]; Prostate carcinoma, Cases with amplification of the gene that encodes for the NK1 receptor)?
Answer: 96±6 percentage

Question: What about the “Percentage of inhibition of cell cultures” value ([2]; Prostate carcinoma, Cases without amplification of the gene that encodes for the NK1 receptor) of the same molecule?
Answer: 25±6 percentage

Question: And the “Percentage of inhibition of cell cultures” value ([2]; Renal cell carcinoma (clear cell renal cell carcinoma), Cases with amplification of the gene that encodes for the NK1 receptor)?
Answer: 94±5 percentage

Question: What about the “Percentage of inhibition of cell cultures” value ([2]; Renal cell carcinoma (clear cell renal cell carcinoma), Cases without amplification of the gene that encodes for the NK1 receptor) of the same molecule?
Answer: 27±4 percentage

Question: What about the “Percentage of inhibition of cell cultures” value ([2]; Thyroid carcinoma (follicular carcinoma), Cases with amplification of the gene that encodes for the NK1 receptor) of the same molecule?
Answer: 94±6 percentage

Question: What about the “Percentage of inhibition of cell cultures” value ([2]; Thyroid carcinoma (follicular carcinoma), Cases without amplification of the gene that encodes for the NK1 receptor) of the same molecule?
Answer: 25±5 percentage

Question: And the “Percentage of inhibition of cell cultures” value ([2]; Thyroid carcinoma (papillary carcinoma), Cases with amplification of the gene that encodes for the NK1 receptor)?
Answer: 97±4 percentage

Question: What about the “Percentage of inhibition of cell cultures” value ([2]; Thyroid carcinoma (papillary carcinoma), Cases without amplification of the gene that encodes for the NK1 receptor) of the same molecule?
Answer: 26±3 percentage

Question: What about the “Percentage of inhibition of cell cultures” value ([2]; Undifferentiated Pleomorphic Sarcoma (malignant fibrous histiocytoma grade 3), Cases with amplification of the gene that encodes for the NK1 receptor) of the same molecule?
Answer: 95±7 percentage

Question: What about the “Percentage of inhibition of cell cultures” value ([2]; Undifferentiated Pleomorphic Sarcoma (malignant fibrous histiocytoma grade 3), Cases without amplification of the gene that encodes for the NK1 receptor) of the same molecule?
Answer: 27±4 percentage

Question: What about the “Percentage of inhibition of cell cultures” value ([2]; Urinary bladder carcinoma (transitional cell carcinoma), Cases with amplification of the gene that encodes for the NK1 receptor) of the same molecule?
Answer: 95±5 percentage

Question: And the “Percentage of inhibition of cell cultures” value ([2]; Urinary bladder carcinoma (transitional cell carcinoma), Cases without amplification of the gene that encodes for the NK1 receptor)?
Answer: 24±5 percentage

Question: And the “inhibition of cell proliferation” value ([2]; cancer cell cultures which show amplification in the genomic region encoding the NK1 receptor, compared, non-peptidic antagonists 100 micromolar, antibody 1/50)?
Answer: higher inhibition

Question: And the inhibition at 1 µM (Prostate carcinoma; read-out: Percentage of inhibition of cell cultures, NK1 receptor immunostaining Group 1 (less than 20% of the cells))?
Answer: 17 ± 4%

Question: And the inhibition at 1 µM (Prostate carcinoma; read-out: Percentage of inhibition of cell cultures, NK1 receptor immunostaining Group 2 (20-80% of the cells))?
Answer: 46 ± 3%

Question: And the inhibition at 1 µM (Prostate carcinoma; read-out: Percentage of inhibition of cell cultures, NK1 receptor immunostaining Group 3 (more than 80% of the cells))?
Answer: 92 ± 5%

Question: What about the inhibition at 1 µM (Prostate carcinoma; read-out: Percentage of inhibition of cell cultures, NK1 receptor immunostaining Intensity grade 1) of the same molecule?
Answer: 18 ± 4%

Question: And the inhibition at 1 µM (Prostate carcinoma; read-out: Percentage of inhibition of cell cultures, NK1 receptor immunostaining Intensity grade 2)?
Answer: 47 ± 4%

Question: What about the inhibition at 1 µM (Prostate carcinoma; read-out: Percentage of inhibition of cell cultures, NK1 receptor immunostaining Intensity grade 3) of the same molecule?
Answer: 92 ± 4%
